Patent publication US20250041422A1, “METHOD OF TREATING ARRHYTHMIA, POPULATION OF PACEMAKER CARDIOMYOCYTES, AND METHOD OF TREATING CARDIAC ARRHYTHEMIA USING POPULATION OF PACEMAKER CARDIOMYOCYTES” (priority 2022, published 2025)
“Also recorded” adds a separate entry of the source. Values belong to the compound of their own block, whether it stands above or below them.

Tests used:
[1] = tested on: Tbx18-induced pacemaker cardiomyocytes; experiment: Beating rate / electrical firing rate of Tbx18-induced pacemaker cardiomyocytes (video or MEA); format: cell-based, rat
Protocol: (§1) The Tbx18-PCs were used as the cell model of pacemaker cardiomyocytes, which were generated by the transduction of VMs with adenoviral human Tbx18 (MOI [multiplicity of infection]: 10; green fluorescent protein [GFP] reporter, ADV-225152, Vector Biolabs, Malvern, USA) for 24 hours (Kapoor et al; Hu et al.). Those with adenovirus-CMV-GFP were used as control VMs (Tsai et al., J Biomed Sci, 2015). For the cocultures of Tbx18-PCs and fibroblasts, a ratio of fibroblasts/VMs ( 1/10) was first plated on fibronectin-coated wells, and adenoviral Tbx18 was transduced for 24 hours one day after seeding to induce PCs. […] Therefore, the beating rates, metabolic and molecular phenotypes, including microelectrode array (MEA), whole transcriptomes, Seahorse analysis, metabolomics, glycolysis metabolites (lactate or DHAP), protein and gene transcripts were analyzed 3-5 days after Tbx18 transduction. The beating rates were recorded by MEA or video. An inverted microscope (AXIO Observer Al, Carl Zeiss AG, Oberkochen, Germany) was used for 10-second video capture. Video was analyzed with Q Capture Pro 6.0 (Teledyne Technologies, CA, USA).
(§2) For the experiments of drug treatment, Tbx18-PCs after re-expression of Tbx18 were treated with sodium pyruvate (1 mM, 11360-070, Thermo Fisher Scientific, 3 days), 2-deoxy-D-glucose (2-DG, 5 mM, D8375, Sigma-Aldrich, 3 days), wortmannin (PI3K inhibitor, 100 nM, 12-338, Merck Millipore, MA, USA, 4 days), anti-integrin β1 monoclonal antibody (ltgb1, MAB1987Z, 10 μg/mL, Merck Millipore, 2 days), or SB203580 (p38-MAP kinase inhibitor, 559389, 1 μM, Merck Millipore, 3 days), respectively. Then the beating rate and gene expression were analyzed.
(§3) Tbx18-PCs or human IPS-CMs were transduced with human Aldoc adenovirus (CMV promotor, 068583A, Applied Biological Materials, Richmond, BC, Canada), and CMV-null adenovirus was used as a control (000047A, Applied Biological Materials) for 24 hours. Aldoc overexpression was confirmed by Aldoc transcripts (FIG. 1J). The protein, gene transcripts, and beating rates were analyzed 3 days after transduction. The viral titer used in cell transduction of aldolase c overexpression is MOI of 10. The transduced cells were not subjected to enrichment by the antibiotic selection.
MEA was used to record electrical firing in Tbx18-PCs, Tbx18-PC tissue sheets, or human IPS-CMs. The cells or tissue sheets were seeded on fibronectin-coated MEA CytoView MEA 24-White plate at 37° C. and 5% C02 (M384-tMEA-24W, Axion BioSystems, Atlanta, USA). The electrical firing rates were recorded by Maestro Edge (Axion BioSystems). The continuous recording of electrical signals for 5 minutes was used for the analysis (sampling frequency: 12.5 kHz, low pass and high pass filter: 2 kHz and 0.1 Hz) by AxIS Navigator software Axion BioSystems. In human IPS-CMs, the cells were further treated with epinephrine (150 ng/mL, Taiwan Biotech Co., Ltd) after recording baseline electrical firing rate. Similarly, continuous recording of electrical signals for 5 minutes after the treatment was used for the analysis.
The cocultures of Tbx18-pacemaker cardiomyocytes (PCs) and fibroblasts, a ratio of fibroblasts/VMs ( 1/10) was first plated on fibronectin-coated wells, and adenoviral Tbx18 (MOI [multiplicity of infection]: 10, ADV-225152, Vector Biolabs, Malvern, USA) was transduced for 24 hours after seeding to induce PCs. After re-expression of Tbx18 were treated with the inhibitors of PI3K (wortmannin, PIK-75, Duvelisib, Alpelisib, Copanlisib, Idelalisib, and Eganelisib), and one IKK inhibitor (BMS-345541) for 4 days. Then the beating rate and Aldoc transcriptional expressions were analyzed. The beating rates were recorded by video. An inverted microscope (AXIO Observer Al, Carl Zeiss AG, Oberkochen, Germany) was used for 10-second video capture. We analyzed the video with Q Capture Pro 6.0 (Teledyne Technologies, CA, USA). Aldoc gene transcriptional expressions were analyzed by quantitative real-time PCR. […]

Hcn4 = Hcn4 expression in Tbx18-induced pacemaker cardiomyocytes (real-time PCR); format: cell-based, rat; conditions: for Hcn4 expression: 3 days, Tbx18-PCs
Protocol: as §2, §3
(§4) Total RNA was extracted from cultured VMs using the RNeasy® Mini Kit (74106, Qiagen, Venlo, Netherlands). Complementary DNAs (cDNAs) were synthesized using a SuperScript® […] First-Strand Synthesis System (18080051, Thermo Fisher Science). Quantitative real-time PCR (qRT-PCR) was performed using Applied Biosystems™ StepOnePlus Real-Time PCR system with TaqMan probe assays (4331182, Invitrogen, Waltham, Massachusetts, USA) and PrimeTime qPCR Probe Assays (Integrated DNA Technologies, Inc., Coralville, Iowa, USA). The internal control was Gapdh. The conditions of thermocycle used in amplification were denaturation at 95° C. for 15 seconds and annealing and extension step at 60° C. for 60 seconds by 40 cycles. The relative values of gene transcripts were analyzed by ΔΔCt method. All the probes used are listed below in Table 1.

aldolase c (Aldoc) = experiment: Aldoc transcripts by quantitative real-time PCR in treated Tbx18-PC/fibroblast cocultures; format: cell-based, rat; conditions: for transcriptional expressions of Aldolase C / Aldolase C expressions: 4 days; for aldolase c expressions within pacemaker cardiomyocytes: in-vitro, summary statement, concentration not given at the place
Protocol: as §1
For the experiments of drug treatment, Tbx18-PCs after re-expression of Tbx18 were treated with sodium pyruvate (1 mM, 11360-070, Thermo Fisher Scientific, 3 days), 2-deoxy-D-glucose (2-DG, 5 mM, D8375, Sigma-Aldrich, 3 days), wortmannin (PI3K inhibitor, 100 nM, 12-338, Merck Millipore, MA, USA, 4 days), anti-integrin β1 monoclonal antibody (ltgb1, MAB1987Z, 10 μg/mL, Merck Millipore, 2 days), or SB203580 (p38-MAP kinase inhibitor, 559389, 1 μM, Merck Millipore, 3 days), respectively. Then the beating rate and gene expression were analyzed. […]
as §4
The cocultures of Tbx18-pacemaker cardiomyocytes (PCs) and fibroblasts, a ratio of fibroblasts/VMs ( 1/10) was first plated on fibronectin-coated wells, and adenoviral Tbx18 (MOI [multiplicity of infection]: 10, ADV-225152, Vector Biolabs, Malvern, USA) was transduced for 24 hours after seeding to induce PCs. After re-expression of Tbx18 were treated with the inhibitors of PI3K (wortmannin, PIK-75, Duvelisib, Alpelisib, Copanlisib, Idelalisib, and Eganelisib), and one IKK inhibitor (BMS-345541) for 4 days. Then the beating rate and Aldoc transcriptional expressions were analyzed. The beating rates were recorded by video. An inverted microscope (AXIO Observer Al, Carl Zeiss AG, Oberkochen, Germany) was used for 10-second video capture. We analyzed the video with Q Capture Pro 6.0 (Teledyne Technologies, CA, USA). Aldoc gene transcriptional expressions were analyzed by quantitative real-time PCR. The protocol is as same as the treatment described previously (FIGS. 31A-31B).
Total RNA was extracted from cultured VMs using the RNeasy® Mini Kit (74106, Qiagen, Venlo, Netherlands). Complementary DNAs (cDNAs) were synthesized using a SuperScript® […] First-Strand Synthesis System (18080051, Thermo Fisher Science). […]

Tbx18-PC tissue sheets = experiment: Beating rate / electrical firing of engineered Tbx18-PC tissue sheets; format: cell-based, rat; conditions: epinephrine 0.15 μg/mL
Protocol: The fibroblasts and VMs were mixed in a ratio of 1:10 (fibroblast/VMs, total cell number: 1×10^6) with an extracellular matrix of 10% Matrigel (354230, Corning®) in the cultured-insert (80209, 0.22 mm^2, ibidi GmbH, Grsfelfing, Germany) for gelation at 37° C. The engineered tissue was transduced with adenoviral human Tbx18 or control vectors 24 hours after gelation. The constant beating was usually observed 4-5 days after Tbx18 adenovirus transduction. Therefore, phenotypes were determined using immunofluorescence staining, beating rate (either video recording or microelectrode array), and real-time quantitative PCR after virus transduction for 5-6 days. The autonomic response of Tbx18-PC tissue sheets was evaluated by treatment with epinephrine (Taiwan Biotech Co., Ltd, Taoyuan, Taiwan).
The Tbx18-PC cocultures were treated with 200 nM siRNAs (Dharmacon™, GE Healthcare, Lafayette, CO, USA or GenePharma, Shanghai, China) or negative controls (nontarget siRNAs, D-001810-10-05, Dharmacon™ or negative controls, GenePharma) for 24 hours using DharmaFECT transfection reagent (Dharmacon™) in serum-free and antibiotic-free medium. Cells were incubated at 37° C. in 5% C02 for 96 hours, and the beating rate was recorded by microelectrode array (MEA) or video. Then, total RNA was extracted for real-time PCR analysis. […]

mouse SAN = experiment: Heart rate recording (ECG) in mice; format: in vivo; conditions: epinephrine 2.5 μg intraperitoneal, control (scramble) mice
Protocol: Male mice (C57BL/6, 26 to 32 g, 13-14 weeks, National Laboratory Animal Center, Taiwan) were mechanically ventilated at a controlled temperature (37° C.±0.5° C.) under general anesthesia (isoflurane). […] AAV9 siRNA or scramble virus with a reporter of green fluorescent protein (1.44×10^9 gene copies; AAV9 scramble siRNA [iAAV01509] and Aldoc siRNA pooled virus [117530940219], Applied Biological Materials, Canada) was added to the pericardial recess through the opening. […] The survival rate was 100%. All animals were included except one scramble animal. One animal from the scramble group was excluded because arrhythmia was observed before the experiment.
Two weeks later, the three-lead surface ECG (Biopac, MP36, CA, USA) was recorded on mice by inserting needle electrodes subcutaneously into the limbs after anesthesia. The heart rate was recorded for 2 minutes first to compare the knockdown and control groups. Then, we performed a peritoneal injection of epinephrine (2.5 μg, Taiwan Biotech) and recorded the heart rate for 5 minutes after the injection. After the recording, the mouse hearts were removed for tissue analysis. ECG data were analyzed by Biopac Student Lab 4.1 software (Biopac).

[2] = in-vitro, summary statement, concentration not given at the place

SMILES: O=CC[C@@H](O)[C@H](O)[C@H](O)CO [2-DG, 2-deoxy-D-glucose]
beating rate ([1]; 2-DG 5 mM, 3 days, Tbx18-PCs): decreased | Hcn4 expression (Hcn4; 2-DG 5 mM): decreased

SMILES: Cc1nc(NC(=O)N2CCC[C@H]2C(N)=O)sc1-c1ccnc(C(C)(C)C(F)(F)F)c1 [Alpelisib]
beating rates [1, 2]: increased | transcriptional expressions of Aldolase C (aldolase c (Aldoc); 250 nM, control 0.87±0.05, P=0.008): 1.13±0.05 | aldolase c expressions within pacemaker cardiomyocytes (aldolase c (Aldoc)): increased

SMILES: COc1c(OCCCN2CCOCC2)ccc2c1N=C(NC(=O)c1cnc(N)nc1)N1CCN=C21 [Copanlisib]
beating rates [1, 2]: increased | transcriptional expressions of Aldolase C (aldolase c (Aldoc); 10 nM, control 0.64±0.09, P=0.002): 1.32±0.09 | aldolase c expressions within pacemaker cardiomyocytes (aldolase c (Aldoc)): increased

SMILES: C[C@H](Nc1ncnc2nc[nH]c12)c1cc2cccc(Cl)c2c(=O)n1-c1ccccc1 [Duvelisib]
transcriptional expressions of Aldolase C (aldolase c (Aldoc); 50 nM, control 0.82±0.08, P=0.02): 1.17±0.11

SMILES: C[C@H](NC(=O)c1c(N)nn2cccnc12)c1cc2cccc(C#Cc3cnn(C)c3)c2c(=O)n1-c1ccccc1 [Eganelisib]
beating rates [1, 2]: increased | transcriptional expressions of Aldolase C (aldolase c (Aldoc); 40 nM, control 0.57±0.03, P=0.013): 0.82±0.07 | aldolase c expressions within pacemaker cardiomyocytes (aldolase c (Aldoc)): increased

SMILES: CC[C@H](Nc1ncnc2[nH]cnc12)c1nc2cccc(F)c2c(=O)n1-c1ccccc1 [Idelalisib]
beating rates [1, 2]: increased | transcriptional expressions of Aldolase C (aldolase c (Aldoc); 100 nM, control 0.87±0.05, P=0.02): 1.01±0.02 | aldolase c expressions within pacemaker cardiomyocytes (aldolase c (Aldoc)): increased

SMILES: C[S+]([O-])c1ccc(-c2nc(-c3ccncc3)c(-c3ccc(F)cc3)[nH]2)cc1 (stereo not shown) [SB203580]
Aldoc expression (aldolase c (Aldoc); SB203580 1 μM, 3 days, cocultures, vs control): decreased; also recorded: reduced

SMILES: CNC[C@H](O)c1ccc(O)c(O)c1 [epinephrine]
beating rate (Tbx18-PC tissue sheets; Tbx18-PC tissue sheets): increased | beating rate (Tbx18-PC tissue sheets; control tissue sheets): minimal changes | heart rate (mouse SAN): increased

SMILES: CC(=O)C(=O)[O-].[Na+] [sodium pyruvate]
beating rates ([1]; sodium pyruvate 1 mM, 3 days, Tbx18-PCs): increased | Hcn4 expression (Hcn4; sodium pyruvate 1 mM): increased

Now from value to compound, other results behind:

Aldolase C expressions (aldolase c (Aldoc); BMS-345541 5 μM, vs control): increased | aldolase c expressions within pacemaker cardiomyocytes (aldolase c (Aldoc)): increased
SMILES: Cc1ccc2nc(NCCN)c3ncc(C)n3c2c1 [BMS-345541]
beating rate ([1]; BMS-345541 1-10 μM, 4 days, vs control): increased | beating rates [1, 2]: increased | Hcn4 expressions (Hcn4; BMS-345541 5 μM, vs control): increased

Aldolase C expressions (aldolase c (Aldoc); PIK-75 high dose (10 nM), vs control): increased | aldolase c expressions within pacemaker cardiomyocytes (aldolase c (Aldoc)): increased
SMILES: Cc1ccc([N+](=O)[O-])cc1S(=O)(=O)N(C)/N=C/c1cnc2ccc(Br)cn12 [PIK-75]
beating rate ([1]; PIK-75 high dose (10 nM), 4 days, vs control): increased | beating rate ([1]; PIK-75 low dose (1-5 nM), 4 days, vs control): increased | beating rates [1, 2]: increased
